Target: human LPA1 (Homo sapiens, UniProt Q92633)
Assay: In vitro functional assay of lysophosphatidic acid receptor 1 activity (calcium flux)
Assay type: cell-based
Conditions: B103 cells stably expressing human LPA1; Fluo-4 NW calcium flux after lysophosphatidic acid (18:1) at EC80; compounds 100 pM to 10 μM; read-out: LPA1 IC50
Procedure, shortened: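 B103 cells stably expressing human LPA1 plated onto compound for 24 h at 37 °C, loaded with Fluo-4 NW dye, re-exposed to compound (30 min 37 °C plus 30 min room temp).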

Sequence of human LPA1 (Q92633 whole entry): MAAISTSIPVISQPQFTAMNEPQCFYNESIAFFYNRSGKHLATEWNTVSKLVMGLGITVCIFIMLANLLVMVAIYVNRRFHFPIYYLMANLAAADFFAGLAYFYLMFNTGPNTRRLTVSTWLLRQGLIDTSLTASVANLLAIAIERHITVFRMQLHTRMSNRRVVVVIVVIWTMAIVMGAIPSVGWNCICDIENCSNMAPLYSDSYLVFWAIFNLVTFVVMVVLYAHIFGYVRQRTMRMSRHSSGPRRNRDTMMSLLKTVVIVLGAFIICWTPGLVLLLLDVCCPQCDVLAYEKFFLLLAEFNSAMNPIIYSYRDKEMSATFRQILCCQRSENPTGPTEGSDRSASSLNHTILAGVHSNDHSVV

IC50 [nM]	Compound
10 to 100	COc1ccc(NC(=O)C2(c3ccccc3C(C)C)CCC(O)CC2)c(OC(F)F)n1 (mixture of isomers) [Example 81, N-(2-(difluoromethoxy)-6-methoxypyridin-3-yl)-4-hydroxy-1-(2-isopropylphenyl)cyclohexane-1-carboxamide]
10 to 100	Cc1ccc(NC(=O)C2(c3ccccc3C(C)C)CC(Cn3ccnn3)C2)c(OC(F)F)n1 (stereo not drawn) [Example 72, 3-((1H-1,2,3-triazol-1-yl)methyl)-N-(2-(difluoromethoxy)-6-methylpyridin-3-yl)-1-(2-isopropylphenyl)cyclobutane-1-carboxamide]
10 to 100	Cc1ccc(NC(=O)C2(c3ccccc3C(C)C)CC(N3CCC3=O)C2)c(OC(F)F)n1 (mixture of isomers) [Example 68, N-(2-(difluoromethoxy)-6-methylpyridin-3-yl)-1-(2-isopropylphenyl)-3-(2-oxoazetidin-1-yl)cyclobutane-1-carboxamide]
10 to 100	COc1ccc(NC(=O)C2(c3ccccc3C(C)C)CC(=O)N(C)C2)c(OC(F)F)n1 (single isomer, unassigned) [Example 1, N-(2-(difluoromethoxy)-6-methoxypyridin-3-yl)-3-(2-isopropylphenyl)-1-methyl-5-oxopyrrolidine-3-carboxamide]
10 to 100	COc1ccc(NC(=O)[C@]2(c3ccccc3C(C)C)C[C@H](Cc3nnn[nH]3)C2)c(OC(F)F)n1 [Example 119, cis-3-((1H-tetrazol-5-yl)methyl)-N-(2-(difluoromethoxy)-6-methoxypyridin-3-yl)-1-(2-isopropylphenyl)cyclobutane-1-carboxamide]
10 to 100	COc1ccc(NC(=O)C2(c3ccccc3C(C)C)CCC(C)(O)CC2)c(OC(F)F)n1 (single isomer, unassigned) [Example 83-isomer B, N-(2-(difluoromethoxy)-6-methoxypyridin-3-yl)-4-hydroxy-1-(2-isopropylphenyl)-4-methylcyclohexane-1-carboxamide]
